Data on 1 compound can be found in patent US8562669B2, “Methods of application of coatings composed of hydrophobic, high glass transition polymers with tunable drug release rates” (Abbott Cardiovascular Systems Inc., priority 2008, dated 2013).

Molecules are shown by their SMILES.

A short description of this series: Cumulative drug release at 24 hours from coated stents (USP type 7 tester, porcine serum). The conditions noted are these: stent coating of everolimus and 75:25 PLGA. Type of series: physicochemical. The protocol:
As used herein, any measurement of drug release, for example without limitation, release rate, release duration, or substantially released, refers to the an in-vitro measurement using a United States Pharmacopeia Type VII apparatus, using porcine serum with sodium azide optionally added (0.1% w/v) at a temperature of 37° C.
All stents were cleaned by being sonicated in isopropyl alcohol. Stents were coated with a primer layer of approximately 51 μg of 75:25 PLGA (poly(D,L-lactide-co-glycolide) provided by Boehringer Ingelheim, grade RG755S) by spraying from a solution of 2 weight % polymer in 90:10 acetone:methyl isobutyl ketone (w/w). More than one pass under the coater was required to obtain the target weight of polymer on the stent. The spraying operation was carried out with a custom made spray coater equipped with a spray nozzle, a drying nozzle, and a means to rotate and translate the stent under the nozzles with the processing parameters outlined in Table 1. Subsequent to coating, all stents were baked in a forced air convection oven at 140° C. for 30 minutes. […] More than one pass under the coater was required to obtain the target weight of polymer on the stent. The spraying operation was carried out with the same coater used for the primer spraying with the following parameters outlined in Table 2. After the drug layer coating, the stents were baked in a force air convection oven at 50° C. for 1 hour. After baking the coating, the stents were crimped onto 3.0×12 mm XIENCE V catheters, placed in protective tubular coils, and then sealed in Argon filled foil pouches. The stents were not sterilized. Cumulative release of the drug everolimus at 24 hours was determined using a United States Pharmacopeia type 7 tester in porcine serum with sodium azide 0.1% (w/v) added as the dissolution media. Everolimus released into solution was determined by HPLC analysis on the amount of drug remaining on the stent. The cumulative release expressed is one minus the fractional amount of drug remaining divided by the theoretical quantity or dose of drug per stent. In this experiment, the same drug to polymer ratio and the same polymer and drug were used but the spray coating was accomplished with different solvents. In one set of stents, the solvent was 100% acetone while for other stents the solvent was a 50:50 (w/w) mixture of acetone and methyl isobutyl ketone. The cumulative release as measured of drug after 24 hours for n=3 stents is illustrated in FIG. 1.
Stents were cleaned, coated with a primer of 75/25 PLGA, and then coated with a drug layer as described in Example 1 except that the drug to polymer ratio was 1:2 (and therefore the % solids in the coating solution was 3% (w/w)). […]

Consider `CO[C@H]1C[C@@H]2CC[C@@H](C)[C@@](O)(O2)C(=O)C(=O)N2CCCC[C@H]2C(=O)O[C@H]([C@H](C)C[C@@H]2CC[C@@H](OCCO)[C@H](OC)C2)CC(=O)[C@H](C)/C=C(\C)[C@@H](O)[C@@H](OC)C(=O)[C@H](C)C[C@H](C)/C=C/C=C/C=C/1C` [everolimus], for which the “cumulative release at 24 hours” value is reported as “about 96%” (drug:polymer 1:1, sprayed from 50:50 (w/w) acetone:methyl isobutyl ketone, 37° C.); “about 23%” (drug:polymer 1:1, sprayed from 100% acetone, 37° C.); “about 42%” (drug:polymer 1:2 as printed, sprayed from 50:50 (w/w) acetone:dimethyl acetamide); “about 83%” (drug:polymer 1:2 as printed, sprayed from 50:50 acetone:methyl isobutyl ketone).
